In paper PMC7076710, “Synthesis, Identification, and Structure–Activity Relationship Analysis of GATA4 and NKX2-5 Protein–Protein Interaction Modulators” (Journal of Medicinal Chemistry, 2019):

System: COS-1 cells
Experiment: MTT assay (cell viability)
Assay type: cell-based
Details: for MTT.1µM / MTT.3µM / MTT.10µM / MTT.30µM: cell viability; for toxicity class in the MTT assay: 24-h exposure, classified at 10 μM

| Compound | MTT.1µM | MTT.3µM | MTT.10µM | MTT.30µM | toxicity class in the MTT assay | MTT.3µM (COS-1 cells) | MTT.10µM (COS-1 cells) | MTT.30µM (COS-1 cells) | MTT.1µM (COS-1 cells) |
| --- | --- | --- | --- | --- | --- | --- | --- | --- | --- |
| CCN(CC)c1ccc(NC(=O)c2cnsc2)cc1 [Compound 47s] | 103.66 | 95.56 | 92.49 | 105.44 | nontoxic (nontoxic compounds (cell viability >90%)) |  |  |  |  |
| COc1ccc(-c2cc(NC(=O)c3ccc(C(C)(C)C)cc3)n[nH]2)cc1 [Compound 72] | 110.93 | 101.15 | 102.37 | 107.89 | nontoxic (nontoxic compounds (cell viability >90%)) |  |  |  |  |
| Cc1onc(-c2ccccc2)c1COc1ccc(C(=O)OCCC#N)cc1 [Compound 35a, 2-Cyanoethyl 4-[(5-Methyl-3-phenylisoxazol-4-yl)methoxy]benzoate] | 83.35 | 72.67 | 66.11 | 61.55 | most toxic |  |  |  |  |
| Cc1onc(-c2ccccc2)c1C(=O)N(C1=NC(C)CS1)c1ccc(Cl)cc1 (stereo not shown) [Compound 2] |  |  |  |  | nontoxic (nontoxic compounds (cell viability >90%)) | 105.13% | 107.32% | 87.3% |  |
| CCC(=O)N(Cc1ccc(N(CC)CC)cc1)c1c(-c2ccccc2)noc1C [Compound 58] | 99.35 | 82.12 | 76.17 | 63.57 | most toxic |  |  |  |  |
| N-[4-(Diethylamino)phenyl]-3-methyl-5-(4-methyl-1,2,3-thiadiazol-5-yl)isoxazole-4-carboxamide [Compound 47c] | 88.76 | 85.01 | 81.61 | 78.65 | high toxicity |  |  |  |  |
| CCN(CC)c1ccc(NC(=O)c2c(-c3ccccc3)noc2C)cc1 [Compound 1, N-[4-(Diethylamino)phenyl]-5-methyl-3-phenylisoxazole-4-carboxamide] |  |  |  |  | toxic (Toxic compounds (cell viability <90%)) | 96.23% | 89.96% | 91.57% | 98.55% |
